Non-standard residues stand in square brackets, D forms with d. Residues, ends and D or L forms follow the SMILES beside them.
Legend:
[1] = test system: malnourished subjects with CKD; assay: Phase II CKD: vital signs; format: in vivo, human; conditions: for Diastolic blood pressure: mean (SD) / Heart rate: mean (SD) / Systolic blood pressure: mean (SD): Safety Analysis Set
Description: Mean systolic blood pressure was lower at Day 28 compared with baseline in the GHRH(1-29)NH2 synthetic analog group but higher compared with baseline in the placebo group (Table 37). […] Similarly, mean diastolic blood pressure was lower at Day 28 compared with baseline in the GHRH(1-29)NH2 synthetic analog group but this was not part of a trend.

[2] = test system: antibodies to the GHRH(1-29)NH2 synthetic analog; assay: Phase I/II study: human anti-GHRH antibodies ELISA; format: in vivo; conditions: Day 30 sample, at the dilution tested
Protocol: On Day 30, an ambulatory control visit took place. Clinical assessments were performed and adverse events were reported. A blood sample was taken to determine the presence of antibodies the GHRH(1-29)NH2 synthetic analog.
Once the volunteers were considered eligible, they were hospitalized for a period of 5 consecutive days. On Day 0 of admission successive samples of blood were taken to perform the basal secretion profile of GH during 24 hours. During 5-day hospitalization period, after the initial blood sampling to determine fasting glucose level, the appropriate dose of the GHRH(1-29)NH2 synthetic analog or placebo was administered and multiple samplings were performed to assess the profile of GH, postprandial glucose level and electrocardiogram after 60 minutes of the application of the GHRH(1-29)NH2 synthetic analog/placebo. Eight hours after drug administration, samples were obtained to determine IGF-1 level, thyroid hormones and routine analysis. After 30 days of admission, all the volunteers returned for new clinical evaluation to record any adverse events that could have occurred from the last day of hospitalization period and to take a blood sample for later determination of anti-GHRH(1-29)NH2 synthetic analog antibodies.
Human anti-GHRH antibodies were measured in ELISA developed LAB Pre-Clinical Research Intl.

Canine Growth Hormone = assay: In vivo GH secretion in a male Beagle dog, escalating SC doses, RIA
Description: In order to assess such use of the GHRH analogs, the following experiments were undertaken. […] The above GHRH analog is a variation of a synthetic acetate salt of an amidated synthetic 29-amino acid peptide that corresponds to the amino-terminal segment of the naturally-occurring human growth hormone—releasing hormone (GHRH) with four amino acid substitutions in positions 2, 10, 15, and 22.
Prior to administration, all dosing formulations were filtered using a 0.22 μm filter to ensure sterility. […] Dosing started at approximately the same time each day, commencing at 9:00 am ±30 minutes.
For pharmacodynamic investigations, blood samples (approximately 1.0 ml) were collected from the dog on each treatment day via a jugular venipuncture at the following time points: pre-dose, 7, 15, 22, 30, 45, and 60 minutes post dosing. All blood samples were collected into potassium EDTA tubes and centrifuged under refrigeration (2 to 8° C., 1500 g for 10 minutes).
Plasma GH was determined by Linco Diagnostic Services using their own kit. Linco's Porcine/Canine Growth Hormone radioimmunoassay kit (RIA) (PGH-46HK) has been developed to quantitate Growth Hormone in plasma, serum, and tissue culture media. It is a completely homologous assay since the antibody was raised against recombinant Porcine Growth Hormone and both the standard and tracer are prepared with recombinant Porcine Growth Hormone. Since the amino acid sequences of Porcine Growth Hormone and Canine Growth Hormone are identical, this assay developed for Porcine Growth Hormone measures Canine Growth Hormone levels with equal efficiency. All components are included (standards, antibody, tracer, quality controls, precipitating reagents and buffer) necessary to complete a RIA. The assay was conducted under the following conditions: overnight; equilibrium incubation at room temperature; sample volume: 100 μl serum, plasma, or cell culture media.

[3] = test system: malnourished subjects with CKD; assay: Phase II CKD: DEXA scan; format: in vivo, human
Protocol: The DEXA scan was performed by an appropriately qualified person and in accordance with the agreed guidelines. Mean body composition values (fat free mass, fat mass and bone mineral content) were recorded for the total body and for defined regional areas (arms, legs, trunk), if possible.
Mean body composition values (total tissue, fat mass, lean tissue and bone mineral content) were recorded for the total body and defined regional areas (arms, legs, trunk) if possible. FFM was derived for total body and for regional areas.

## CC[C@H](C)[C@H](NC(=O)[C@H](C)NC(=O)[C@H](CC(=O)O)NC(=O)[C@@H](C)NC(=O)[C@@H](N)Cc1ccc(O)cc1)C(=O)N[C@@H](Cc1ccccc1)C(=O)N[C@H](C(=O)N[C@@H](CC(N)=O)C(=O)N[C@@H](CO)C(=O)N[C@H](Cc1ccc(O)cc1)C(=O)N[C@@H](CCCNC(=N)N)C(=O)N[C@@H](CCCCN)C(=O)N[C@H](C(=O)N[C@@H](CC(C)C)C(=O)N[C@H](C)C(=O)N[C@@H](CCC(N)=O)C(=O)N[C@@H](CC(C)C)C(=O)N[C@@H](CO)C(=O)N[C@@H](C)C(=O)N[C@@H](CCCNC(=N)N)C(=O)N[C@@H](CCCCN)C(=O)N[C@@H](CCCCN)C(=O)N[C@@H](CC(C)C)C(=O)N[C@@H](CCC(N)=O)C(=O)N[C@@H](CC(=O)O)C(=O)N[C@H](C(=O)N[C@@H](CCSC)C(=O)N[C@@H](CO)C(=O)N[C@@H](CCCNC(=N)N)C(N)=O)[C@@H](C)CC)C(C)C)[C@@H](C)O [GHRH analog #5, [D-Ala^2, D-Tyr^10, D-Ala^15, Lys^22] hGHRH(1-29)-NH2] (H-Y[dA]DAIFTNS[dY]RKVL[dA]QLSARKKLQDIMSR-NH2)
[1]; Day 7
  Mean systolic blood pressure: 136.4 mmHg
[1]; Day 14
  Mean systolic blood pressure: 139.9 mmHg
[1]; Day 21
  Mean systolic blood pressure: 143.1 mmHg
[1]; Baseline
  Diastolic blood pressure: mean (SD): 82.7 (10.9) mmHg
  Heart rate: mean (SD): 77.7 (11.1) bpm
  Systolic blood pressure: mean (SD): 144.8 (16.0) mmHg
[1]; Day 28
  Diastolic blood pressure: mean (SD): 76.7 (8.1) mmHg
  Heart rate: mean (SD): 76.4 (9.8) bpm
  Systolic blood pressure: mean (SD): 128.3 (16.5) mmHg
[1]; screening
  Mean systolic blood pressure: 142.0 mmHg
[2]
  Detectable antibodies to the GHRH(1-29)NH2 synthetic analog: None of the subject samples tested had detectable antibodies
Canine Growth Hormone; 0.01 mg/kg BW SC, 0 min
  Canine Growth Hormone: 1.99 ng/mL
Canine Growth Hormone; 0.01 mg/kg BW SC, 7 min
  Canine Growth Hormone: 1.99 ng/mL
Canine Growth Hormone; 0.01 mg/kg BW SC, 15 min
  Canine Growth Hormone: 5 ng/mL
Canine Growth Hormone; 0.01 mg/kg BW SC, 22 min
  Canine Growth Hormone: 4 ng/mL
Canine Growth Hormone; 0.01 mg/kg BW SC, 30 min
  Canine Growth Hormone: 11 ng/mL
Canine Growth Hormone; 0.01 mg/kg BW SC, 45 min
  Canine Growth Hormone: 17 ng/mL
Canine Growth Hormone; 0.01 mg/kg BW SC, 60 min
  Canine Growth Hormone: 11 ng/mL
Canine Growth Hormone; 0.1 mg/kg BW SC, 0 min
  Canine Growth Hormone: 1.99 ng/mL
Canine Growth Hormone; 0.1 mg/kg BW SC, 7 min
  Canine Growth Hormone: 5 ng/mL
Canine Growth Hormone; 0.1 mg/kg BW SC, 15 min
  Canine Growth Hormone: 9 ng/mL
Canine Growth Hormone; 0.1 mg/kg BW SC, 22 min
  Canine Growth Hormone: 7 ng/mL
Canine Growth Hormone; 0.1 mg/kg BW SC, 30 min
  Canine Growth Hormone: 6 ng/mL
Canine Growth Hormone; 0.1 mg/kg BW SC, 45 min
  Canine Growth Hormone: 5 ng/mL
Canine Growth Hormone; 0.1 mg/kg BW SC, 60 min
  Canine Growth Hormone: 1.99 ng/mL
Canine Growth Hormone; 1 mg/kg BW SC, 0 min
  Canine Growth Hormone: 1.99 ng/mL
Canine Growth Hormone; 1 mg/kg BW SC, 7 min
  Canine Growth Hormone: 4 ng/mL
Canine Growth Hormone; 1 mg/kg BW SC, 15 min
  Canine Growth Hormone: 14 ng/mL
Canine Growth Hormone; 1 mg/kg BW SC, 22 min
  Canine Growth Hormone: 9 ng/mL
Canine Growth Hormone; 1 mg/kg BW SC, 30 min
  Canine Growth Hormone: 19 ng/mL
Canine Growth Hormone; 1 mg/kg BW SC, 45 min
  Canine Growth Hormone: 7 ng/mL
Canine Growth Hormone; 1 mg/kg BW SC, 60 min
  Canine Growth Hormone: 7 ng/mL
Canine Growth Hormone; dog
  Treatment-related clinical signs: No treatment-related clinical signs were observed
Canine Growth Hormone; dog, AUC not measured
  GH response compared with natural hGHRH(1-44)NH2: significantly larger
Canine Growth Hormone; dog, subcutaneous
  GH secretion into peripheral blood, dose dependence: dose-dependent response
Canine Growth Hormone; dogs
  Optimal sc dose: 10 μg/kg body weight
[3]; Day 28
  Mean fat mass (%) as % of the mean in placebo group: 83%
  Mean fat mass (kg) as % of the mean in placebo group: 84%
[3]; ITT, Baseline
  Arms - bone mineral content: mean (SD): 0.317 (0.109) kg
  Arms - fat mass: mean (SD): 2.22 (1.65) kg
  Legs - bone mineral content: mean (SD): 0.791 (0.273) kg
  Legs - fat mass: mean (SD): 5.26 (2.86) kg
  Total body - bone mineral content (%): mean (SD): 3.63 (0.68) %
  Total body - bone mineral content (kg): mean (SD): 2.236 (0.656) kg
  Total body - fat free mass (%): mean (SD): 72.11 (14.25) %
  Total body - fat free mass (kg): mean (SD): 43.83 (10.90) kg
  Total body - fat mass (%): mean (SD): 27.89 (14.25) %
  Total body - fat mass (kg): mean (SD): 17.10 (9.48) kg
  Trunk - bone mineral content: mean (SD): 0.699 (0.239) kg
  Trunk - fat mass: mean (SD): 8.52 (4.73) kg
[3]; ITT, Baseline, listed as GHRH(1-29)NH2 synthetic analog
  Trunk - bone mineral content: mean (SD): 0.699 kg
[3]; ITT, Day 28
  Arms - bone mineral content: mean (SD): 0.300 (0.106) kg
  Arms - fat mass: mean (SD): 2.01 (1.25) kg
  Legs - bone mineral content: mean (SD): 0.784 (0.281) kg
  Legs - fat mass: mean (SD): 5.31 (3.05) kg
  Total body - bone mineral content (%): mean (SD): 3.58 (0.69) %
  Total body - bone mineral content (kg): mean (SD): 2.225 (0.674) kg
  Total body - fat free mass (%): mean (SD): 73.16 (14.31) %
  Total body - fat free mass (kg): mean (SD): 44.85 (11.61) kg
  Total body - fat mass (%): mean (SD): 26.84 (14.31) %
  Total body - fat mass (kg): mean (SD): 16.51 (9.51) kg
  Trunk - bone mineral content: mean (SD): 0.718 (0.253) kg
  Trunk - fat mass: mean (SD): 8.17 (4.91) kg
[3]; ITT, Day 28, listed as GHRH(1-29)NH2 synthetic analog
  Trunk - bone mineral content: mean (SD): 0.718 kg
[3]; ITT, Day 28, vs placebo
  Total body - fat free mass (kg): ratio of means; higher than placebo: 2.94 kg
  Total body - fat mass (%): ratio of means: 0.83
  Total body - fat mass (kg): ratio of means: 0.84
[3]; ITT, Day 28, vs placebo, listed as GHRH(1-29)NH2 synthetic analog
  Total body - fat free mass (kg): ratio of means; higher than placebo: 2.9 kg
[3]; day 28
  Decrease from baseline in median FM: 0.4 kg
  FM lost on average in arms: 0.22 kg
  FM lost on average in trunk: 0.30 kg
  Increase from baseline in median FFM: 1.6 kg
  Mean FFM gained, arms: 0.15 kg
  Mean FFM gained, legs: 1.03 kg
  Mean FFM gained, total body: 1.83 kg
  Mean FFM gained, trunk: 0.59 kg
  Mean total FM lost: 0.51 kg
